Key:
[1] = Mutagenicity in Salmonella typhimurium TA1535 assessed as inhibition of bacterial growth at 0.152 to 333 ug incubated in presence of S9 fraction by micro-Ames test; assay type: toxicity, subcellular, Salmonella enterica subsp. enterica serovar Typhimurium; conditions: dose 0.152-333 µg
[2] = test system: PBMC; assay: Cytotoxicity against human PBMC cells assessed as reduction in cell viability at 0.4 uM incubated for 12 days by CCK-8 assay; assay type: toxicity, cell-based; conditions: 288 h, time 12 day
[3] = test system: SARS-CoV-2; assay: Antiviral activity against SARS-CoV-2 JPN/TY/WK-521 infected in Vero E6 cells assessed as fold change preincubated with cells for 1 day followed by viral infection and measured after 3 days by qRT-PCR analysis relative to 7-fluoro-N-((S)-1-(((S)-1-(4-fluorobenzo[d]thiazol-2-yl)-1-oxo-3-((S)-2-oxopyrrolidin-3-yl)propan-2-yl)amino)-3,3-dimethyl-1-oxobutan-2-yl)-4-methoxy-1H-indole-2-carboxamide; assay type: functional, Severe acute respiratory syndrome coronavirus 2; conditions: time 4 day
[4] = Mutagenicity in Salmonella typhimurium TA100 assessed as inhibition of bacterial growth at 0.152 to 333 ug incubated in absence of S9 fraction by micro-Ames test; assay type: toxicity, Salmonella enterica subsp. enterica serovar Typhimurium; conditions: in vivo; dose 0.152-333 µg
[5] = test system: SARS-CoV-2; assay: Antiviral activity against SARS-CoV-2 hCoV-19/Japan/TKYS02037/2022 (omicron BA.2) infected in Vero E6 cells preincubated with cells for 1 day followed by viral infection and measured after 3 days by qRT-PCR analysis; assay type: functional, organism-based; conditions: Severe acute respiratory syndrome coronavirus 2, hCoV-19/Japan/TKYS02037/2022 (omicron BA.2), Vero C1008
[6] = test system: MT2; assay: Cytotoxicity against human MT2 cells assessed as reduction in cell viability at 0.4 uM incubated for 12 days by CCK-8 assay; assay type: toxicity, cell-based; conditions: mt2, 288 h, time 12 day
[7] = Cytotoxicity against human HepG2 cells; assay type: toxicity, cell-based
[8] = Mutagenicity in Salmonella typhimurium TA1537 assessed as inhibition of bacterial growth at 0.152 to 333 ug incubated in presence of S9 fraction by micro-Ames test; assay type: toxicity, subcellular, Salmonella enterica subsp. enterica serovar Typhimurium; conditions: dose 0.152-333 µg
[9] = Mutagenicity in Escherichia coli WP2uvrA assessed as fold increase in number of revertants at 0.152 to 333 ug incubated in absence of S9 fraction by micro-Ames test relative to control; assay type: toxicity; conditions: in vivo; dose 0.152-333 µg
[10] = Mutagenicity in Salmonella typhimurium TA1537 assessed as fold increase in number of revertants at 0.152 to 333 ug incubated in absence of S9 fraction by micro-Ames test relative to control; assay type: toxicity, Salmonella enterica subsp. enterica serovar Typhimurium; conditions: in vivo; dose 0.152-333 µg
[11] = test system: SARS-CoV-2; assay: Antiviral activity against SARS-CoV-2 JPN/TY/WK-521 infected in Vero E6 cells preincubated with cells for 1 day followed by viral infection and measured after 3 days by qRT-PCR analysis; assay type: functional, organism-based; conditions: Severe acute respiratory syndrome coronavirus 2, JPN/TY/WK-521, Vero C1008
[12] = Half life in PXB mouse at 10 mg/kg, iv measured for 24 hrs; assay type: ADME, organism-based; conditions: in vivo
[13] = test system: SARS-CoV-2; assay: Antiviral activity against SARS-CoV-2 infected in Vero E6 cells preincubated with cells for 1 day in presence of HCl treated compound followed by viral infection and measured after 3 days by qRT-PCR analysis; assay type: functional, organism-based; conditions: Severe acute respiratory syndrome coronavirus 2, Vero C1008
[14] = Mutagenicity in Escherichia coli WP2uvrA assessed as inhibition of bacterial growth at 0.152 to 333 ug incubated in absence of S9 fraction by micro-Ames test; assay type: toxicity; conditions: in vivo; dose 0.152-333 µg
[15] = Mutagenicity in Salmonella typhimurium TA1535 assessed as fold increase in number of revertants at 0.152 to 333 ug incubated in presence of S9 fraction by micro-Ames test relative to control; assay type: toxicity, subcellular, Salmonella enterica subsp. enterica serovar Typhimurium; conditions: dose 0.152-333 µg
[16] = Cytotoxicity against African green monkey Vero E6 cells in presence of P-glycoprotein inhibitor, CP100356; assay type: toxicity, cell-based, Vero C1008; conditions: chlorocebus sabaeus, with CP100356 (P-glycoprotein inhibitor)
[17] = Mutagenicity in Salmonella typhimurium TA98 assessed as fold increase in number of revertants at 0.152 to 333 ug incubated in presence of S9 fraction by micro-Ames test relative to control; assay type: toxicity, subcellular, Salmonella enterica subsp. enterica serovar Typhimurium; conditions: dose 0.152-333 µg
[18] = test system: SARS-CoV-2; assay: Antiviral activity against SARS-CoV-2 infected in Vero E6 cells preincubated with cells for 1 day in absence of HCl followed by viral infection and measured after 3 days by qRT-PCR analysis; assay type: functional, organism-based; conditions: Severe acute respiratory syndrome coronavirus 2, Vero C1008
[19] = test system: Vero C1008; assay: Cytotoxicity against African green monkey Vero E6 cells infected with SARS-CoV-2 WK-521 upto 100 uM incubated for 3 days by immunostaining analysis; assay type: toxicity, cell-based; conditions: chlorocebus sabaeus, vero c1008, 72 h, time 3 day
[20] = Mutagenicity in Escherichia coli WP2uvrA assessed as inhibition of bacterial growth at 0.152 to 333 ug incubated in presence of S9 fraction by micro-Ames test; assay type: toxicity, subcellular; conditions: dose 0.152-333 µg
[21] = Cytotoxicity against human HeLa cells expressing ACE2 and TMPRSS2; assay type: toxicity, cell-based
[22] = Mutagenicity in Escherichia coli WP2uvrA assessed as fold increase in number of revertants at 0.152 to 333 ug incubated in presence of S9 fraction by micro-Ames test relative to control; assay type: toxicity, subcellular; conditions: dose 0.152-333 µg
[23] = Mutagenicity in Salmonella typhimurium TA98 assessed as inhibition of bacterial growth at 0.152 to 333 ug incubated in absence of S9 fraction by micro-Ames test; assay type: toxicity, Salmonella enterica subsp. enterica serovar Typhimurium; conditions: in vivo; dose 0.152-333 µg
[24] = Mutagenicity in Salmonella typhimurium TA1535 assessed as fold increase in number of revertants at 0.152 to 333 ug incubated in absence of S9 fraction by micro-Ames test relative to control; assay type: toxicity, Salmonella enterica subsp. enterica serovar Typhimurium; conditions: in vivo; dose 0.152-333 µg
[25] = Mutagenicity in Salmonella typhimurium TA98 assessed as inhibition of bacterial growth at 0.152 to 333 ug incubated in presence of S9 fraction by micro-Ames test; assay type: toxicity, subcellular, Salmonella enterica subsp. enterica serovar Typhimurium; conditions: dose 0.152-333 µg
[26] = Half life in PXB mouse at 10 mg/kg, po measured for 24 hrs; assay type: ADME, organism-based; conditions: in vivo
[27] = test system: MOLT-4; assay: Cytotoxicity against human MOLT-4 cells assessed as reduction in cell viability at 0.4 uM incubated for 12 days by CCK-8 assay; assay type: toxicity, cell-based; conditions: molt-4, 288 h, time 12 day
[28] = Mutagenicity in Salmonella typhimurium TA98 assessed as fold increase in number of revertants at 0.152 to 333 ug incubated in absence of S9 fraction by micro-Ames test relative to control; assay type: toxicity, Salmonella enterica subsp. enterica serovar Typhimurium; conditions: in vivo; dose 0.152-333 µg
[29] = test system: SARS-CoV-2; assay: Antiviral activity against SARS-CoV-2 assessed as fold change relative to YH-53; assay type: functional, Severe acute respiratory syndrome coronavirus 2
[30] = Oral bioavailability in PXB mouse at 10 mg/kg measured for 24 hrs; assay type: ADME, organism-based; conditions: in vivo
[31] = Cytotoxicity against African green monkey Vero E6 cells incubated for 3 days by WST-8 assay; assay type: toxicity, cell-based, Vero C1008; conditions: chlorocebus sabaeus, time 3 day
[32] = Mutagenicity in Salmonella typhimurium TA1537 assessed as inhibition of bacterial growth at 0.152 to 333 ug incubated in absence of S9 fraction by micro-Ames test; assay type: toxicity, Salmonella enterica subsp. enterica serovar Typhimurium; conditions: in vivo; dose 0.152-333 µg
[33] = Mutagenicity in Salmonella typhimurium TA100 assessed as fold increase in number of revertants at 0.152 to 333 ug incubated in presence of S9 fraction by micro-Ames test relative to control; assay type: toxicity, subcellular, Salmonella enterica subsp. enterica serovar Typhimurium; conditions: dose 0.152-333 µg
[34] = Mutagenicity in Salmonella typhimurium TA100 assessed as inhibition of bacterial growth at 0.152 to 333 ug incubated in presence of S9 fraction by micro-Ames test; assay type: toxicity, subcellular, Salmonella enterica subsp. enterica serovar Typhimurium; conditions: dose 0.152-333 µg
[35] = Mutagenicity in Salmonella typhimurium TA1537 assessed as fold increase in number of revertants at 0.152 to 333 ug incubated in presence of S9 fraction by micro-Ames test relative to control; assay type: toxicity, subcellular, Salmonella enterica subsp. enterica serovar Typhimurium; conditions: dose 0.152-333 µg
[36] = Mutagenicity in Salmonella typhimurium TA100 assessed as fold increase in number of revertants at 0.152 to 333 ug incubated in absence of S9 fraction by micro-Ames test relative to control; assay type: toxicity, Salmonella enterica subsp. enterica serovar Typhimurium; conditions: in vivo; dose 0.152-333 µg
[37] = Mutagenicity in Salmonella typhimurium TA1535 assessed as inhibition of bacterial growth at 0.152 to 333 ug incubated in absence of S9 fraction by micro-Ames test; assay type: toxicity, Salmonella enterica subsp. enterica serovar Typhimurium; conditions: in vivo; dose 0.152-333 µg
[38] = Cytotoxicity against human A549-hACE2-TMPRSS2 cells; assay type: toxicity, cell-based
[39] = test system: SARS-CoV-2; assay: Antiviral activity against SARS-CoV-2 JPN/TY/WK-521 infected in Vero E6 cells assessed as inhibition of viral replication preincubated with cells for 1 day followed by viral infection and measured after 3 to 4 days by qRT-PCR analysis; assay type: functional, organism-based; conditions: Severe acute respiratory syndrome coronavirus 2, JPN/TY/WK-521, Vero C1008

## CC(C)(C)[C@H](NC(=O)C(F)(F)F)C(=O)N1C[C@H]2[C@@H]([C@H]1C(=O)N[C@@H](C[C@@H]1CCNC1=O)C(=O)c1nc3c(F)cccc3s1)C2(C)C
[1]
  Activity: Non-Toxic
[2]
  Activity: Non-Toxic
[3]
  fold change (FC): 0.057
[4]
  Activity: Non-Toxic
[5]
  EC50: 48 nM
[6]
  Activity: Non-Toxic
[7]
  CC50: > 200 µM
[8]
  Activity: Non-Toxic
[9]
  fold change (FC): > 2
[10]
  fold change (FC): > 2
[11]
  EC50: 12 nM
[12]
  half-life: 75 min
[13]
  EC50: 87 nM
[14]
  Activity: Non-Toxic
[15]
  fold change (FC): > 2
[16]
  CC50: > 100 µM
[17]
  fold change (FC): > 2
[18]
  EC50: 74 nM
[19]
  Activity: Non-Toxic
[20]
  Activity: Non-Toxic
[21]
  CC50: > 100 µM
[22]
  fold change (FC): > 2
[23]
  Activity: Non-Toxic
[24]
  fold change (FC): > 2
[25]
  Activity: Non-Toxic
[26]
  half-life: 229 min
[27]
  Activity: Non-Toxic
[28]
  fold change (FC): > 2
[29]
  fold change (FC): 0.012
[30]
  bioavailability: 48%
[31]
  CC50 at 72 h: > 100 µM
[32]
  Activity: Non-Toxic
[33]
  fold change (FC): > 2
[34]
  Activity: Non-Toxic
[35]
  fold change (FC): > 2
[36]
  fold change (FC): > 2
[37]
  Activity: Non-Toxic
[38]
  CC50: > 100 µM
[39]
  EC50: 30 nM
